Earlier results, collected in patent publication US20240170163A1, “SYSTEMS AND METHODS FOR DETECTING NEW DRUG PROPERTIES IN TARGET-BASED DRUG-DRUG SIMILARITY NETWORKS” (priority 2021, published 2024).

Tests used:
[1] = test system: breast cancer
[2] = test system: prostate carcinoma cells; settings: in vitro
[3] = test system: PR-transfected MDA-MB-231 cells
[4] = test system: dendritic cells
[5] = test system: Candida albicans; settings: in vitro
[6] = test system: Klebsiella pneumoniae; settings: in vitro
[7] = test system: Candida; settings: liquid formulation, in vitro
[8] = test system: chronic lymphocytic leukemia (CLL)

In the case of CCN(CC)CCCC(C)Nc1c2ccc(Cl)cc2nc2ccc(OC)cc12 (stereo not shown) [Quinacrine], the “DNA damage in breast cancer” value [1] is listed as “induces DNA damage”, the “apoptosis / cell cycle effect in breast cancer” value [1] is listed as “produces apoptosis by blocking cells in S-phase” and the “topoisomerase activity in breast cancer” value [1] is listed as “inhibits topoisomerase activity”.

For NC(Cn1ccc(=O)c(O)c1)C(=O)O (stereo not shown) [Mimosine], the “cell proliferation of prostate carcinoma cells” value [2] is listed as “attenuates cell proliferation”.

For CC(=O)[C@H]1CC[C@H]2[C@@H]3CCC4=CC(=O)CC[C@]4(C)[C@H]3CC[C@]12C [Progesterone], the “expression of genes involved in cell proliferation and metastasis” value [3] is listed as “suppressed the expression”.

For N=C(N)NC(=O)c1nc(Cl)c(N)nc1N [Amiloride], the “activation of the dendritic cells” value [4] is listed as “inhibits the activation” and the inflammation ([4]; besides its diuretic effects) is listed as “ameliorates the inflammation”.

In the case of COC(F)(F)C(Cl)Cl [Methoxyflurane], the “inhibitory effects on cultures of Candida albicans” value [5] is listed as “excellent inhibitory effects” and the “inhibitory effects on cultures of Klebsiella pneumoniae” value [6] is listed as “excellent inhibitory effects”.

For FC(F)OC(Cl)C(F)(F)F (stereo not shown) [Isoflurane], the “anti-Candida activity compared with Amphotericin B” value [7] is given as “better anti-Candida activity”, the “inhibitory effects on cultures of Candida albicans” value [5] is given as “excellent inhibitory effects” and the “inhibitory effects on cultures of Klebsiella pneumoniae” value [6] is given as “excellent inhibitory effects”.

In the case of COc1cc([C@@H]2c3cc4c(cc3[C@H](O)[C@H]3COC(=O)[C@H]23)OCO4)cc(OC)c1OC [Podofilox], the “cytotoxicity in chronic lymphocytic leukemia (CLL)” value [8] is listed as “potent cytotoxic agent”.
